Here are results for four molecules from US20160374967A1, “ORGANIC THIOPHOSPHATE ANTIRETROVIRAL AGENTS” (The Government of the U.S.A., as Represented by the …, priority 2006, published 2016).

Read-outs that look alike come from different tables or passages of the source. Where only a bound is given, the exact number is not on record here.

Series [1] concerns HIV. Description: microbe, parasite or virus in culture. It counts as cell-based. The conditions noted are these: for duration of action (anti-HIV, cell culture): cysteamine re-added every 12 hours, WR-1065 added once in 72 hour period.
In series [2] the test system is PHA-blasts. The conditions noted are these: human, 72 h.
The next series concerns HIV-1BZ-167. Description: HIV-1 replication in PHA-blasts by p24 ELISA, dose-response and combinations. The conditions noted are these: for IC50: n=3, read-out: 50% Inhibition of virus replication. It counts as cell-based.
The conditions of series [3]: mouse, in vivo; cited from earlier work.
The conditions of series [4]: cited from earlier work.
The conditions of series [5]: mice, cited from earlier work.
For series [6] the following is noted: in vivo; cited from earlier work.
In series [7] the test system is HIV. It counts as cell-based. The following applies: human T-lymphocytes.
For series [8] the following is noted: rhesus macaques, duodenal 150 mg/kg BW of amifostine or phosphonol, cited from earlier work.
In a further series the test system is adenovirus. Description: Antiviral efficacy against adenovirus. The following applies: three different species of adenovirus.
For a further series, the system named is PHA blasts. As to the kind of experiment: Viability of PHA blasts exposed to WR-1065 (no HIV), 72 h. It counts as cell-based, human.
For another series, the system named is TK6 cells. Description: 14-day survival of TK6 cells in continuous presence of WR-1065. It counts as cell-based, human.
The test system of series [9] is PHA-blasts. Description: Cell survival (cytotoxicity) by trypan blue in HIV-1 infected PHA-blasts.
The mark [10] stands for this setting: metabolite after amifostine injection at 500-910 mg/m^2.
Setting [11] is: metabolite after amifostine injection.

As to `Cc1cn([C@H]2C[C@H](N=[N+]=[N-])[C@@H](CO)O2)c(=O)[nH]c1=O` [AZT, Zidovudine, reference compound], the “HIV Viral P24” value stood at 0.13 pg/mL with HIV [1] (Experiment #1, 10 μM AZT, 72 h); 9.07 pg/mL in the series on HIV [1] (Experiment #2, 10 μM AZT, 72 h); 2.9 pg/mL in the series with HIV [1] (Experiment #3, 10 μM AZT, 72 h). For the same molecule, the inhibition at 10 µM was around 100% in the series with HIV [1] (Human immunodeficiency virus 1, PBMC, 72 h, Experiment #1, 10 μM AZT, 72 h, read-out: Estimated percent inhibition); 94.9% in the series on HIV [1] (Human immunodeficiency virus 1, PBMC, 72 h, Experiment #2, 10 μM AZT, 72 h, read-out: Estimated percent inhibition); around 100% in the series with HIV [1] (Human immunodeficiency virus 1, PBMC, 72 h, Experiment #3, 10 μM AZT, 72 h, read-out: Estimated percent inhibition). Moreover, the target cell survival with PHA-blasts [2] (7.75 μM) turned out to be 54±15%. In the series with HIV-1BZ-167 (AZT 0.8, 3.0 and 5.0 μM), the “inhibition of virus replication” value is 85-96%. Moreover, the “dose for 50% reduction in HIV-1 replication, fold lower than that of WR-1065” value in the series on HIV-1BZ-167 (AZT versus WR-1065) was “about 1000 fold”. In addition, the inhibition at 7.75 µM in the series on HIV-1BZ-167 (Human immunodeficiency virus 1, 7.75 μM, alone, mean±SD, n=4) was 96.7 ± 5.1%. The IC50 with HIV-1BZ-167 (Human immunodeficiency virus 1, dose-response 1.9-117.0 nM, mean±SE) came out at 3.5 ± 0.7 nM.
Turning to `NCCCNCCSP(=O)(O)O` [Amifostine, S-2-(3-aminopropyl)aminoethyl phosphorothioic acid], the “100% effective radioprotective dose” value in series [3] is “about one half of the MTD”. This molecule yielded a cell survival with PHA-blasts [2] (50 μM) of 53±10%. Moreover, in the series on HIV-1BZ-167 (Human immunodeficiency virus 1, 50 μM amifostine (with alkaline phosphatase), mean±SE, n=4), the inhibition at 50 µM was determined as 75.4 ± 8.3%. The “plasma T1/2” value in series [4] (in vivo) is around 10 min. For the same molecule, the “maximally tolerated dose (MTD)” value in series [5] (i.p.) is 432 mg/kg BW; in series [5] (p.o.), 720 mg/kg BW. Moreover, the “effects of single doses of up to 2700 mg/m^2” value in series [6] was “no untoward effects”.
With `NCCS` [Cysteamine, reference compound], the “suppression of HIV replication” value in the series on HIV [1] (200 μM) was around 100%. The “duration of action (anti-HIV, cell culture)” value with HIV [1] is on record as “very short”.
On to `NCCCNCCS` [WR-1065, 2-(3-aminopropylamino)ethanethiol], for which the “intra-cellular concentration necessary to reduce HIV replication by ~100%” value with HIV [7] is reported as around 50 picomoles/10^6 cells. Also, in the series with HIV [1], the “in vitro anti-HIV potency relative to cysteamine” value stood at 2 fold. In the series with HIV [1] (Experiment #1, 1000 μM), the “HIV inhibition in human PBMCs (in words)” value is reported as “inhibits HIV completely”. Also, the “HIV Viral P24” value was 0.13 pg/mL with HIV [1] (Experiment #1, 1000 μM WR-1065, 72 h); 8.92 pg/mL with HIV [1] (Experiment #2, 100 μM WR-1065, 72 h); 9.31 pg/mL with HIV [1] (Experiment #2, 330 μM WR-1065, 72 h); 8.92 pg/mL in the series on HIV [1] (Experiment #2, 1000 μM WR-1065, 72 h); 911.2 pg/mL in the series on HIV [1] (Experiment #3, 10 μM WR-1065, 72 h); 503.2 pg/mL with HIV [1] (Experiment #3, 33 μM WR-1065, 72 h). In addition, in the series with HIV [1] (Experiment #3, 66 μM WR-1065, 72 h), the “HIV Viral P24” value was 33.2 pg/mL. Further, the “influence on the effect of 10 μM AZT” value in the series on HIV [1] (Experiment #1, 1000 μM WR-1065 with 10 μM AZT) was “does not appear to alter”. For the same molecule, the “HIV infection inhibition in human PBMCs (in words)” value with HIV [1] (Experiment #2, concentrations as low as 100 μM) is “inhibit HIV infection completely”. For the same molecule, the “HIV Viral P24 pg/ml” value in the series with HIV [1] (Experiment #3, 5 μM WR-1065, 72 h) was 10,293.7 pg/ml. For the same molecule, the inhibition at 1000 µM in the series with HIV [1] (Human immunodeficiency virus 1, PBMC, 72 h, Experiment #1, 1000 μM WR-1065, 72 h, read-out: Estimated percent inhibition) was around 100%; in the series on HIV [1] (Human immunodeficiency virus 1, PBMC, 72 h, Experiment #2, 1000 μM WR-1065, 72 h, read-out: Estimated percent inhibition), 94.9%. For the same molecule, the inhibition at 100 µM is 94.9% with HIV [1] (Human immunodeficiency virus 1, PBMC, 72 h, Experiment #2, 100 μM WR-1065, 72 h, read-out: Estimated percent inhibition) and 92 ± 11% in the series on HIV-1BZ-167 (Human immunodeficiency virus 1, 100 μM WR-1065, n=5). In addition, the inhibition at 330 µM in the series with HIV [1] (Human immunodeficiency virus 1, PBMC, 72 h, Experiment #2, 330 μM WR-1065, 72 h, read-out: Estimated percent inhibition) was 94.7%. Also, the inhibition at 5 µM in the series with HIV [1] (Human immunodeficiency virus 1, PBMC, 72 h, Experiment #3, 5 μM WR-1065, 72 h, read-out: Estimated percent inhibition) was 76.8%. Besides, the inhibition at 10 µM with HIV [1] (Human immunodeficiency virus 1, PBMC, 72 h, Experiment #3, 10 μM WR-1065, 72 h, read-out: Estimated percent inhibition) was 98%. Besides, the inhibition at 33 µM in the series with HIV [1] (Human immunodeficiency virus 1, PBMC, 72 h, Experiment #3, 33 μM WR-1065, 72 h, read-out: Estimated percent inhibition) is 98.9%. For the same molecule, in the series with HIV [1] (Human immunodeficiency virus 1, PBMC, 72 h, Experiment #3, 66 μM WR-1065, 72 h, read-out: Estimated percent inhibition), the inhibition at 66 µM was 99.9%. In addition, the “suppression of HIV replication” value in the series on HIV [1] (concentration of less than 100 μM) is above 99.9%. For the same molecule, the “duration of action (anti-HIV, cell culture)” value in the series on HIV [1] is recorded as “long duration of action”. Also, the “Concentration (μg/ml), plasma” value in series [8] (1 h after administration) was 6.21 µg/mL; in [8] (2 h after administration), 4.14 µg/mL; in series [8] (6 h after administration), 2.07 µg/mL. In addition, the antiviral efficacy entry in the series with adenovirus and in the series on influenza was “has antiviral efficacy” throughout. In addition, the “% Viable Cells (compared to control)” value came out at 83% in the series on PHA blasts (1 μM); 82% in the series on PHA blasts (5 μM); 90% in the series on PHA blasts (10 μM); 89% with PHA blasts (50 μM); 63% in the series on PHA blasts (100 μM); 73% in the series on PHA blasts (500 μM). The “% Viable Cells (compared to control)” value with PHA blasts (1000 μM) came to 30%. For the same molecule, in the series with HIV-1BZ-167 (103-206 μM WR-1065), the HIV-1 growth inhibition is recorded as at least 94%. Also, the inhibition at 26 µM in the series with HIV-1BZ-167 (Human immunodeficiency virus 1, 26 μM WR-1065, mean SE, n=5) worked out at 65 ± 7.5%. The inhibition at 50 µM with HIV-1BZ-167 (Human immunodeficiency virus 1, 50 μM WR-1065, n=5) came to 83.2 ± 18.6%. Further, the inhibition at 52 µM in the series with HIV-1BZ-167 (Human immunodeficiency virus 1, 52 μM WR-1065, n=7) was found to be 88.7 ± 5.5%. The inhibition at 103 µM in the series with HIV-1BZ-167 (Human immunodeficiency virus 1, 103 μM WR-1065, n=8) was found to be 93.9 ± 3.1%. The IC50 in the series with HIV-1BZ-167 (Human immunodeficiency virus 1, dose-response 2.5-103.0 μM, mean±SE) was found to be 3100 ± 600 nM. In addition, the “effect on antiretroviral activity of 0.8-3.0 μM AZT” value in the series on HIV-1BZ-167 (WR-1065 at 26 μM) was “did not inhibit”. The 14-day survival in the series with TK6 cells (continuous 50-100 μM WR-1065) is given as below 20%; in the series with TK6 cells (continuous 50-100 μM WR-1065, 10 mg/ml aminoguanidine added from day 4), 70-80%. Also, the T1/2 in series [4] (setting [10]) is at least 2 h. For the same molecule, the peak plasma level in series [4] (setting [10]) was around 100 µM. Moreover, the bioavailability result in [4] (setting [11]) was “high”. Besides, the tissue distribution result in series [4] (setting [11]) was “widespread”. Moreover, the cell survival with PHA-blasts [9] (26 μM WR-1065) is 37%; with PHA-blasts [9] (50 μM WR-1065) it was 55±22%; in the series with PHA-blasts [9] (52 μM WR-1065) it was 49%; in the series with PHA-blasts [9] (100 μM WR-1065), 42±18%; in the series on PHA-blasts [9] (103 μM WR-1065), 78%.
